Reference: patent publication EP4706685A1, “PHARMACEUTICAL FORMULATION COMPRISING LANOSTEROL, DERIVATIVE THEREOF, AND CYCLODEXTRIN” (CARBOEXPERT Inc., priority 2023, dated 2024)

Experiments:
[1] = Stability in solution (visual observation of precipitation with auxiliary agent); assay type: physicochemical; conditions: precipitation observed visually after 24 hours at room temperature
Description: Specifically, unenclosed inotodiol or the inotodiol/CD inclusion complex was mixed with a prepared auxiliary agent. The auxiliary agent was prepared at a concentration of 100 to 15,000 ppm based on the weight of inotodiol, and then treated in a sonic bath at 50 °C for 30 minutes. Afterwards, the stability was determined by visually observing whether precipitation occurred after leaving the mixture at room temperature for 24 hours.

[2] = test system: mouse-derived macrophage cell line (Raw264.7); experiment: Anti-inflammatory effect against LPS in macrophage cell line, cytokine mRNA by RT-PCR; assay type: cell-based; conditions: treated at 5 ug/ml; LPS 0.1 µg/ml, 4 hours
Description: Specifically, Raw264.7 was seeded into a […] at a density of 0.8 X 10^6 cells/well and cultured overnight. Then, the cells were pre-treated with inotodiol and the inotodiol/CD inclusion complex each at different concentrations for 2 hours. The cells were treated with lipopolysaccharide (LPS) at a concentration of 0.1 µg/ml and cultured for 4 hours to induce inflammation, after which RNA was extracted. Then, the mRNA expression of IL-6, IL-1β, and TNF-α was confirmed by a reverse transcription polymerase chain reaction (RT-PCR) method, and the results are shown in FIG. 6.

CC(C)=CC[C@@H](O)[C@@H](C)[C@H]1CC[C@@]2(C)C3=C(CC[C@]12C)[C@@]1(C)CC[C@H](O)C(C)(C)[C@@H]1CC3 [inotodiol, (3S,5R,10S,13R,14R,17R)-17-[(2S,3R)-3-hydroxy-6-methylhept-5-en-2-yl]-4,4,10,13,14-pentamethyl-2,3,5,6,7,11,12,15,16,17-decahydro-1H-cyclopenta[a]phenanthren-3-ol]
ppm of inotodiol in solution ([1]; Kolliphor (5 %)): 500 < ppm
ppm of inotodiol in solution ([1]; Tween 80 (1 %)): 100 < ppm
mRNA expression level of IL-6 [2]: significantly reduced
mRNA expression level of TNF-α [2]: significantly reduced
